For data set [1], the system named is Gli1 mRNA levels in the murine BCC cell line ASZ-001 (Hh pathway). The experiment in a line: Hh pathway inhibition: endogenous Gli1 mRNA (qRT-PCR) in ASZ-001 cells. Format: cell-based. To be noted: for IC50: Mus musculus. The protocol: Initial Hh inhibition studies.
(§1) General Information for Cell Culture Studies Protocols for general cell culture, qPCR, and Hh inhibition ASZ cells are as previously described.
(§2) General Information for Cell Culture Studies. Protocols for general cell culture, qPCR, and Hh inhibition ASZ cells are as previously described.
Gene Expression Assay Protocol (ASZ-001): Cells are seeded (10,000 cells per well; 100 μL total volume per well) in a 96-well tissue culture plate. After 24 h of incubation (37° C., 5% CO2), growth media was removed and replaced with low FBS media. Cells were incubated for an additional 24 h. After this time, DMSO (vehicle control) and liposomes (Aqueous Solution) were added to the wells. […]
Rt-PCR Protocol: Following treatment and incubation periods, both RNA extraction and cDNA synthesis were performed using a TaqMan Cells-to-CT (fast) kit. cDNA synthesis utilized a BioRad MyCycler and was programmed according to the manufacturer's instructions. Quantitative RT-PCR was performed on an ABI 7500 system and made use of the following TaqMan Gene Expression Probes: mouse ActB (Mm00607939_s1) and mouse Gli1 (Mm00494654_m1). Relative gene expression levels were computed via ΔΔCT method using GraphPad Prism. Corresponding IC50 values were calculated as mean±SEM for at least three separate experiments performed in triplicate.
For orientation: Real-time PCR tracks product formation cycle by cycle.

For another data set, the target named is P-glycoprotein (P-gp) (Homo sapiens, UniProt P08183). Briefly: P-glycoprotein (P-gp) efflux. To be noted: for P-gp (Efflux): Table P1; for P-gp: Table 9. Format: in vitro ADME. From the text:
(§3) Preliminary In Vitro Pharmacokinetic Assays.

Data set [2] relates to Gli1 mRNA levels in the murine BCC cell line ASZ-001 (Hh pathway). To be noted: background, read-out: IC50 (Hh signaling); cited from earlier work.
The nature of data set [3]: Parallel artificial membrane permeability assay (PAMPA). The class given is in vitro ADME. To be noted: passive permeability.
Text: as §3
A general note: PAMPA measures passive passage across an artificial lipid membrane.

For data set [4], the system named is primary murine Hh-dependent MB cell line (MERP). Briefly: Antiproliferation in primary Hh-dependent MB cells (MERP). The class given is cell-based. To be noted: Mus musculus. The protocol:
Secondary In Vitro Evaluation. Based on their activity in ASZ cells, several compounds were evaluated further in a primary murine Hh-dependent MB cell line (MERP).
as §1, §2

Data set [5] in a line: Metabolic half-life and clearance (HLM). The class given is in vitro ADME.
For another data set, the target named is T1, BCRP (Homo sapiens, UniProt Q9UNQ0).
T1 sequence (Q9UNQ0 1-655): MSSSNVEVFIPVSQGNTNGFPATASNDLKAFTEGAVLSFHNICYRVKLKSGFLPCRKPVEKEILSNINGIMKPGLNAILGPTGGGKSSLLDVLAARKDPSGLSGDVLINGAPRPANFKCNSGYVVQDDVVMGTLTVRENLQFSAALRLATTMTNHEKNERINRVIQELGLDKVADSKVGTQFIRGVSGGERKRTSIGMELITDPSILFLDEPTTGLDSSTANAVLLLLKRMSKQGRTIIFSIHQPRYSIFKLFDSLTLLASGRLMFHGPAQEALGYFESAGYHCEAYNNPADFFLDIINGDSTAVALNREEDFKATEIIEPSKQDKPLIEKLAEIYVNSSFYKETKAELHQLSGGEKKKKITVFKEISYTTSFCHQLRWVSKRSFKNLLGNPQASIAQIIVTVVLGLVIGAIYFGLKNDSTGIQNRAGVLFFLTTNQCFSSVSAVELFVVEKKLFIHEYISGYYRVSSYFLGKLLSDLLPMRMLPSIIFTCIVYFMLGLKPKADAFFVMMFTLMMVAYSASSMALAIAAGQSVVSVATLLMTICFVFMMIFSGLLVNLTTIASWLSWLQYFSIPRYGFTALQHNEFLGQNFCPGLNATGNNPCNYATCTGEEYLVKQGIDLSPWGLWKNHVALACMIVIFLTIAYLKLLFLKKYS
Briefly: BCRP efflux. The class given is in vitro ADME. To be noted: Table 9.
Text: as §3

The target of another data set is CYP3A4 (Homo sapiens, UniProt P08684). The experiment in a line: CYP3A4 inhibition.
For the next data set, the system named is Hh pathway. To be noted: background; read-out: IC50 (Hh pathway inhibitor); cited from earlier work.

Values after ≈ are worked out from the molar mass of the structure shown. Like-named read-outs stand apart in the source and are kept apart here.

CYP3A4, sequence (P08684 whole entry): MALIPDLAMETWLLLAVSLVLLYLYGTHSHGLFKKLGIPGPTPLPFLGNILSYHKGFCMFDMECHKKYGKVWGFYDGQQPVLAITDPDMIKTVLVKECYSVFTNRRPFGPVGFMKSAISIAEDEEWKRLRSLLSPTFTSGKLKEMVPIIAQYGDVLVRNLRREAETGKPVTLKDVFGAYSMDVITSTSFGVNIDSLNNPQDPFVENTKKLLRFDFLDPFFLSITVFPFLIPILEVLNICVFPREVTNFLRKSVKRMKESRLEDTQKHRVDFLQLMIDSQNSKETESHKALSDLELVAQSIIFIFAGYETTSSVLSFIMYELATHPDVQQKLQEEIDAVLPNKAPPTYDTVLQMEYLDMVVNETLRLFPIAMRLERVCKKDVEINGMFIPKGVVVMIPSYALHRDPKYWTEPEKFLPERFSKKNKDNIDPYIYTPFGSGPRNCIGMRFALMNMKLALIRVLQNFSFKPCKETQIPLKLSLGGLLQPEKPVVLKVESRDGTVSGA
P-glycoprotein (P-gp), sequence (P08183 whole entry): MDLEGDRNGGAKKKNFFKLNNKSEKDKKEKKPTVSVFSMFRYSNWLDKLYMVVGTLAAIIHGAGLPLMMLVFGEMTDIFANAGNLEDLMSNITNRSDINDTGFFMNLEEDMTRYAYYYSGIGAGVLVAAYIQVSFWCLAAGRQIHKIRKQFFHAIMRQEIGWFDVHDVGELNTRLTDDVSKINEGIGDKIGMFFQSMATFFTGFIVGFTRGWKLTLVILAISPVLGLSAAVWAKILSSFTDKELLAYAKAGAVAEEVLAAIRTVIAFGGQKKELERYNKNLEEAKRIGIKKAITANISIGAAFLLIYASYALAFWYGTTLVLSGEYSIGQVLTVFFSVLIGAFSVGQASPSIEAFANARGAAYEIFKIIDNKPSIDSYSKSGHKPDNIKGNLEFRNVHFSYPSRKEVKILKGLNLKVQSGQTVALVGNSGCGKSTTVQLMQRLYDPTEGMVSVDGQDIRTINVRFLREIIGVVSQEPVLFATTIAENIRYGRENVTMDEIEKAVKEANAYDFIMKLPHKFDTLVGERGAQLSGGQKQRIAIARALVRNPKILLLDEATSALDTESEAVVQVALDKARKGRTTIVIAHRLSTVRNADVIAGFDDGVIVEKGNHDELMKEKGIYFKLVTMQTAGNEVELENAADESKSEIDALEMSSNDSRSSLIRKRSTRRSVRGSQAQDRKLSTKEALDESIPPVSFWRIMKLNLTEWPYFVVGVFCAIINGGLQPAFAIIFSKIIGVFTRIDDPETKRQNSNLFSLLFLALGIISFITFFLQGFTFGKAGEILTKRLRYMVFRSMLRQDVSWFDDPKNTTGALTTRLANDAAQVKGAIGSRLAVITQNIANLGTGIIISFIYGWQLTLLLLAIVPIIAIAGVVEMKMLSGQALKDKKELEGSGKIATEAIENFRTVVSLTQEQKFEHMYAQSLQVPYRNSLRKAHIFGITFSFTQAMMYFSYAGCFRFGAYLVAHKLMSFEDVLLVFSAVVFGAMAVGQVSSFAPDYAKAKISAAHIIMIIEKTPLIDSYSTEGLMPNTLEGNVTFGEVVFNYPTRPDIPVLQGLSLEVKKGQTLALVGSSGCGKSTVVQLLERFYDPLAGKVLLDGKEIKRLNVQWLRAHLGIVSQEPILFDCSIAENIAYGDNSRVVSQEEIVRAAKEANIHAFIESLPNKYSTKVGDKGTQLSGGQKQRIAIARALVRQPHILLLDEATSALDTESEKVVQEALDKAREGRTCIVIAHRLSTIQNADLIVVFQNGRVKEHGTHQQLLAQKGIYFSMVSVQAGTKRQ
Method for CYP3A4: Additionally, CYP3A4 inhibition and P-glycoprotein (P-gp) efflux of each compound were evaluated.

For `CC[C@@H]([C@H](C)O)n1ncn(-c2ccc(N3CCN(c4ccc(OC[C@@H]5CO[C@@](Cn6cncn6)(c6ccc(F)cc6F)C5)cc4)CC3)cc2)c1=O` [PSZ, Posaconazole], the IC50 in data set [1] (ASZ001, 48 h) was 0.5 ± 0.1 µM; in data set [2] it was 540 nM. For the same compound, the “P-gp (Efflux)” value at P-glycoprotein (P-gp) is “substrate for P-gp”.

As usually defined, the Solubility is how much of the substance goes into solution per volume. Read a low Solubility as little dissolved substance. As for `C[C@]1(c2ccc(Cl)cc2Cl)OC[C@@H](COc2ccc(N3CCN(c4ccc(NC(=O)c5cccnc5)cc4)CC3)cc2)O1` [Compound 18, N-(4-(4-(4-(((2S,4R)-2-(2,4-dichlorophenyl)-2-methyl-1,3-dioxolan-4-yl)methoxy)phenyl)piperazin-1-yl)phenyl)nicotinamide], in data set [3], the PAMPA result was “Poor”. In data set [4] (Table 6), this compound yielded an IC50 of 1100 ± 600 nM. For the same compound, in the data set “Solubility”, the “Solubility” value was determined as 6.9 nM (≈ 4.27 ng/mL). Besides, the “T1/2 (HLM, min)” value in [5] is “significantly different half-lives”. For the same compound, on P-glycoprotein (P-gp), the P-gp entry is “No”. The BCRP result on BCRP is “No”.

The GI50 is the concentration giving 50% growth inhibition. Lower therefore signals more potent growth inhibition. With `CC(=O)c1cccc(C(=O)Nc2ccc(N3CCN(c4ccc(OC[C@@H]5CO[C@](C)(c6ccc(Cl)cc6Cl)O5)cc4)CC3)cc2)c1` [Compound 34, 3-acetyl-N-(4-(4-(4-(((2S,4R)-2-(2,4-dichlorophenyl)-2-methyl-1,3-dioxolan-4-yl)methoxy)phenyl)piperazin-1-yl)phenyl)benzamide], halving of growth in data set [4] (Table 7) (GI50) required 1000 ± 300 nM. In addition, in the data set “Solubility”, the “Solubility” value is 1.4 nM (≈ 0.925 ng/mL). Moreover, in data set [5], the “T1/2 (HLM, min)” value is 11.4 ± 0.06 min. On CYP3A4, this compound came in with an IC50 of more than 30000 nM.

Turning to `CC[C@@H](C)n1ncn(-c2ccc(N3CCN(c4ccc(OC[C@@H]5CO[C@@](C)(c6ccc(F)cc6F)C5)cc4)CC3)cc2)c1=O` [Compound P1, 2-((R)-sec-butyl)-4-(4-(4-(4-(((3R,5R)-5-(2,4-difluorophenyl)-5-methyltetrahydrofuran-3-yl)methoxy)phenyl)-piperazin-1-yl)phenyl)-2,4-dihydro-3H-1,2,4-triazol-3-one], in [1] (ASZ cells, IC50 ratio vs PSZ), the “times more potent than PSZ” value was 2.5 times. Moreover, the IC50 in data set [1] (ASZ001, Table P1, ASZ cells, Gli1 mRNA, 48 h incubation, read-out: IC50) is 0.19 µM; in data set [4] (Table P1), 610 ± 120 nM; against CYP3A4 (human), more than 20000 nM. Besides, the “CYP3A4 IC50 (μM)” value at CYP3A4 (Table P1) is “decreased CYP3A4 inhibition”. Besides, at P-glycoprotein (P-gp), the “P-gp (Efflux)” value was “No Efflux”.

Regarding `C[C@]1(c2ccc(Cl)cc2Cl)OC[C@@H](COc2ccc(N3CCN(c4ccc(NC(=O)NN)cc4)CC3)cc2)O1` [Compound 40, N-(4-(4-(4-(((2S,4R)-2-(2,4-dichlorophenyl)-2-methyl-1,3-dioxolan-4-yl)methoxy)phenyl)piperazin-1-yl)phenyl)hydrazinecarboxamide], the IC50 in data set [4] (Table 8) is 2800 ± 900 nM; against CYP3A4 it was more than 30000 nM. Besides, the “Solubility” value in the data set “Solubility” was determined as 1.4 nM (≈ 0.801 ng/mL). The “T1/2 (HLM, min)” value in data set [5] is listed as 11.5 ± 0.1 min.

For `C[C@@]1(c2ccc(Cl)cc2Cl)OC[C@@H](COc2ccc(N3CCN(c4ccc(NC(=O)NN)cc4)CC3)cc2)O1` [Compound 39, N-(4-(4-(4-(((2R,4R)-2-(2,4-dichlorophenyl)-2-methyl-1,3-dioxolan-4-yl)methoxy)phenyl)piperazin-1-yl)phenyl)hydrazinecarboxamide], the IC50 in [4] (Table 8) is 500 ± 400 nM; on CYP3A4, more than 30000 nM. For the same compound, the “Solubility” value in the data set “Solubility” worked out at 9.3 nM (≈ 5.32 ng/mL). For the same compound, the “T1/2 (HLM, min)” value in [5] turned out to be 20.1 ± 0.6 min.

With `CCC(C)n1ncn(-c2ccc(N3CCN(c4ccc(OCC5COC(Cn6cncn6)(c6ccc(Cl)cc6Cl)O5)cc4)CC3)cc2)c1=O` (centres unmarked) [ITZ, Itraconazole, reference compound], the PAMPA entry in data set [3] is “Moderate”. Moreover, the IC50 in data set [1] (ASZ001, 48 h, read-out: IC50 (μM) 48 h) was 0.11 ± 0.025 µM; in data set [1] (ASZ001, 96 h, read-out: IC50 (μM) 96 h) it was 0.14 ± 0.012 µM; in the data set on Hh pathway it was 690 nM. Further, the “Solubility” value in “Solubility” was found to be 800 nM (≈ 565 ng/mL). Also, the “T1/2 (HLM, min)” value in [5] was 27.0 ± 6.2 min. For the same compound, the P-gp entry at P-glycoprotein (P-gp) was “No”. Also, the BCRP entry on BCRP is reported as “No”.

As for `C[C@]1(c2ccc(Cl)cc2Cl)OC[C@@H](COc2ccc(N3CCN(c4ccc(NC(=O)c5cccc(O)c5)cc4)CC3)cc2)O1` [Compound 30, N-(4-(4-(4-(((2S,4R)-2-(2,4-dichlorophenyl)-2-methyl-1,3-dioxolan-4-yl)methoxy)phenyl)piperazin-1-yl)phenyl)-3-hydroxybenzamide], the PAMPA entry in data set [3] is “Poor”. The IC50 in data set [4] (Table 6) turned out to be 350 ± 60 nM; at CYP3A4 (read-out: CYP3A4, Table 9), 11400 nM. Also, the “Solubility” value in “Solubility” is 1.6 nM (≈ 1.02 ng/mL). For the same compound, the “T1/2 (HLM, min)” value in [5] was “did not significantly change”.

For the compound `C[C@@]1(c2ccc(Cl)cc2Cl)OC[C@@H](COc2ccc(N3CCN(c4ccc(NC(=O)c5cccnc5)cc4)CC3)cc2)O1` [Compound 13, N-(4-(4-(4-(((2R,4R)-2-(2,4-dichlorophenyl)-2-methyl-1,3-dioxolan-4-yl)methoxy)phenyl)piperazin-1-yl)phenyl)nicotinamide], the PAMPA result in data set [3] is “Poor”. In data set [4] (Table 6), this compound displayed an IC50 of more than 10000 nM. The “Solubility” value in “Solubility” was 4.2 nM (≈ 2.6 ng/mL). Moreover, the “T1/2 (HLM, min)” value in [5] is listed as “significantly different half-lives”.

Values taken from patent US11390613B2, “Azole analogues and methods of use thereof” (UNIVERSITY OF CONNECTICUT, priority 2017, dated 2022).
